Experiments:
rhACE2 = rhACE2 (Homo sapiens, UniProt Q9BYF1); format: binding
[1] = system: spike protein and ACE2 interaction; settings: cited from earlier work

Sequence of rhACE2 (Q9BYF1 18-740): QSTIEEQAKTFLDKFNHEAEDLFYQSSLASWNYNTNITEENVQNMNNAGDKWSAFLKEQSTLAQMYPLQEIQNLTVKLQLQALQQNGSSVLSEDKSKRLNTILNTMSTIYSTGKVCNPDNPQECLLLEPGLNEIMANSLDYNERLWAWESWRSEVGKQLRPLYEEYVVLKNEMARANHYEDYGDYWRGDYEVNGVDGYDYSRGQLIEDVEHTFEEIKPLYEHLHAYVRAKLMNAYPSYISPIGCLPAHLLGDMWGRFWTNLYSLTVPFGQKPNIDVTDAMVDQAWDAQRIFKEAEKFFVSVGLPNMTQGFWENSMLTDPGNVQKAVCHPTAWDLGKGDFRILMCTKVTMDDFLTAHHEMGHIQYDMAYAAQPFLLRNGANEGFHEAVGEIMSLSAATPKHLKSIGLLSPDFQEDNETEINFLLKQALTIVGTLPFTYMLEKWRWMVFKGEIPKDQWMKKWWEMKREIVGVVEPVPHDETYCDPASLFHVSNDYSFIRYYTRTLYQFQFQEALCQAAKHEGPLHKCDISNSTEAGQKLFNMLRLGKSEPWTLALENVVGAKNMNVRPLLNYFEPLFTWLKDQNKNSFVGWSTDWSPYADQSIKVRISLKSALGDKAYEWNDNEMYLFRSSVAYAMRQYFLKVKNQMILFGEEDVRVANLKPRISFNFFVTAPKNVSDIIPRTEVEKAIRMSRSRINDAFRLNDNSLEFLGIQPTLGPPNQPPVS

| Substance | SPR binding to ACE2 (in words) (rhACE2) | other results |
| --- | --- | --- |
| NYNYKY [RBD-11a] |  | SPR response signal (rhACE2): 5 RU |
| YDYRYL | No binding was observed |  |
| ALNSYW [RBD-14a] |  | SPR response (rhACE2): 5 RU |
| YKYDYL | No binding was observed |  |
| IGYQPY [RBD-15c] | no interaction observable |  |
| FYTTTGIGYQPY [SP-8] |  | inhibition of spike protein and ACE2 interaction (in words) [1]: inhibitory activity |
| SYWPLN [RBD-14b] | only weak interaction | SPR response (rhACE2): 7 RU |

— PMC7114193 (Antiviral Research, 2012)
